Here are results for three compounds from the NIST ThermoML archive (doi:10.1021/je200922s).

Numbers after ± are expanded uncertainties.

For the series the following is noted: 101.33 kPa, Liquid; for viscosity: Capillary tube (Ostwald / Ubbelohde) method; for mass density: Vibrating tube method.

`CCO` [ethanol]: the viscosity turned out to be 1.189 ± 0.048 mPa·s (293.15 K); 1.095 ± 0.044 mPa·s (298.15 K); 1.003 ± 0.041 mPa·s (303.15 K); 0.914 ± 0.037 mPa·s (308.15 K); 0.845 ± 0.034 mPa·s (313.15 K); 0.765 ± 0.031 mPa·s (318.15 K). Besides, the viscosity (323.15 K) came out at 0.704 ± 0.029 mPa·s. Moreover, the mass density reads like this: (293.15 K) 789.831 ± 0.12 kg/m3; (298.15 K) 785.535 ± 0.13 kg/m3; (303.15 K) 781.22 ± 0.13 kg/m3; (308.15 K) 776.875 ± 0.13 kg/m3; (313.15 K) 772.48 ± 0.13 kg/m3; (318.15 K) 768.042 ± 0.14 kg/m3. The mass density (323.15 K) stood at 762.564 ± 0.14 kg/m3.
With `CCn1cc[n+](C)c1.O=S(=O)([N-]S(=O)(=O)C(F)(F)F)C(F)(F)F`, the viscosity is given as 40.24 ± 1.6 mPa·s (293.15 K); 33.36 ± 1.4 mPa·s (298.15 K); 28.1 ± 1.1 mPa·s (303.15 K); 23.93 ± 0.98 mPa·s (308.15 K); 20.66 ± 0.85 mPa·s (313.15 K); 17.98 ± 0.73 mPa·s (318.15 K). Further, the viscosity (323.15 K) stood at 15.8 ± 0.65 mPa·s. The mass density runs as follows: (293.15 K) 1523.28 ± 0.7 kg/m3; (298.15 K) 1518.25 ± 0.69 kg/m3; (303.15 K) 1513.23 ± 0.69 kg/m3; (308.15 K) 1508.2 ± 0.69 kg/m3; (313.15 K) 1503.16 ± 0.68 kg/m3; (318.15 K) 1498.19 ± 0.68 kg/m3. The mass density (323.15 K) was 1493.33 ± 0.67 kg/m3.
As to `CN1CCCC1=O` [N-methylpyrrolidone], the viscosity (293.15 K) worked out at 1.811 ± 0.074 mPa·s; the viscosity (298.15 K) amounted to 1.667 ± 0.068 mPa·s; the viscosity (303.15 K) is reported as 1.543 ± 0.063 mPa·s; the viscosity (308.15 K) is 1.437 ± 0.059 mPa·s; the viscosity (313.15 K) was found to be 1.343 ± 0.055 mPa·s; the viscosity (318.15 K) was determined as 1.258 ± 0.051 mPa·s. The viscosity (323.15 K) amounted to 1.184 ± 0.048 mPa·s. Besides, the mass density (293.15 K) was 1032.31 ± 0.26 kg/m3; the mass density (298.15 K) is given as 1027.96 ± 0.25 kg/m3; the mass density (303.15 K) is reported as 1023.52 ± 0.25 kg/m3; the mass density (308.15 K) is 1019.06 ± 0.25 kg/m3; the mass density (313.15 K) came out at 1014.61 ± 0.24 kg/m3; the mass density (318.15 K) is recorded as 1010.14 ± 0.24 kg/m3. For the same compound, under “323.15 K”, the mass density came to 1005.68 ± 0.24 kg/m3.

By viscosity is commonly meant the resistance of a fluid to flow. In general, mass density refers to mass per unit of volume.
